# ChEMBL document CHEMBL3526031, “Mechanistic studies on the absorption and disposition of scutellarin in humans: selective OATP2B1-mediated hepatic uptake is a likely key determinant for its unique pharmacokinetic characteristics” (Drug Metab Dispos, 2012)
# Assays:
# [1] = biological target: Liver microsome; assay: Drug metabolism in human liver microsomes assessed as formation of scutellarein-6,7-diglucuronide after 7 mins by HPLC/UV analysis; format: ADME; settings: for Km / Vmax: human, microsomes, 7 min
# [2] = biological target: T1, Broad substrate specificity ATP-binding cassette transporter ABCG2 (Homo sapiens, UniProt Q9UNQ0); assay: Inhibition of human BCRP-mediated methotrexate transport using inside-out membrane vesicles by LC-MS/MS analysis; format: ADME
# T1 sequence (Q9UNQ0 whole entry): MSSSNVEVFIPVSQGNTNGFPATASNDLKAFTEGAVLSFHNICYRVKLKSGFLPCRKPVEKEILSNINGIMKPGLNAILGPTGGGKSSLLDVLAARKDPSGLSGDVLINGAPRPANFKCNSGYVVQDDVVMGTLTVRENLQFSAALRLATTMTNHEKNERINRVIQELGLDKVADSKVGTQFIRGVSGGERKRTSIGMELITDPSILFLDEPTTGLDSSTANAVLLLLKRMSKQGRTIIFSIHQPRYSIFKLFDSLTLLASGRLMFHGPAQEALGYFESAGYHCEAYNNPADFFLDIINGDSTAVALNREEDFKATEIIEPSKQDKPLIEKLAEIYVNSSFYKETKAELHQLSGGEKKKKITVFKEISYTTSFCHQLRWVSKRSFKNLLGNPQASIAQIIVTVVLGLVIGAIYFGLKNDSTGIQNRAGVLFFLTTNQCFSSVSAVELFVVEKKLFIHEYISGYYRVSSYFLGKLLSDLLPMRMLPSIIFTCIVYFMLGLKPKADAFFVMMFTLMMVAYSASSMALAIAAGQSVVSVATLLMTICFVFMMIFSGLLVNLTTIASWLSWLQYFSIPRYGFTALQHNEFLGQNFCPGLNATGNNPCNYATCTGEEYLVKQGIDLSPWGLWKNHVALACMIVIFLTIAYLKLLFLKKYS
# [3] = biological target: T2, OATP2B1 (Homo sapiens, UniProt O94956); assay: Drug uptake assessed as OATP2B1 (unknown origin)-mediated drug transport expressed in HEK293 cells by LC-MS/MS analysis relative to control; format: ADME, cell-based; settings: HEK293 cells expressing OATP2B1
# T2 sequence (O94956 whole entry): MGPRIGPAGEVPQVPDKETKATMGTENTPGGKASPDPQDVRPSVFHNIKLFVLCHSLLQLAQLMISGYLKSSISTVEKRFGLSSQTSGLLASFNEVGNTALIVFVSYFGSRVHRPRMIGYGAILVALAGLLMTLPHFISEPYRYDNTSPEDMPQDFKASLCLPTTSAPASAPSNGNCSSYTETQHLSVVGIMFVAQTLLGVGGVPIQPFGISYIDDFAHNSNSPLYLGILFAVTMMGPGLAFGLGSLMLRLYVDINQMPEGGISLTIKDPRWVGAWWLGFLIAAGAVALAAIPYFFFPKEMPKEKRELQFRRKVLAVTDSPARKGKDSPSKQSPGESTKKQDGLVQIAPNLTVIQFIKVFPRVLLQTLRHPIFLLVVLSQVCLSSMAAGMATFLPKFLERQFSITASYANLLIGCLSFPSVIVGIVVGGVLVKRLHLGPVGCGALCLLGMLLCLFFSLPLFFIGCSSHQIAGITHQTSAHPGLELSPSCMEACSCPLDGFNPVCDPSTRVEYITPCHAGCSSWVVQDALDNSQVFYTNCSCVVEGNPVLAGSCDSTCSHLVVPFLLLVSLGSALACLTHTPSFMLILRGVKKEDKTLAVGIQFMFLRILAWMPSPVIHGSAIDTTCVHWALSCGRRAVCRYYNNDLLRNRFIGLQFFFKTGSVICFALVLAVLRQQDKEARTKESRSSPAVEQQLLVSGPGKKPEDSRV
# [4] = biological target: T3, ATP-binding cassette sub-family C member 2 (Homo sapiens, UniProt Q92887); assay: Inhibition of human MRP2-mediated estradiol-17beta-D-glucuronide formation using inside-out membrane vesicles by LC-MS/MS analysis
# T3 sequence (Q92887 whole entry): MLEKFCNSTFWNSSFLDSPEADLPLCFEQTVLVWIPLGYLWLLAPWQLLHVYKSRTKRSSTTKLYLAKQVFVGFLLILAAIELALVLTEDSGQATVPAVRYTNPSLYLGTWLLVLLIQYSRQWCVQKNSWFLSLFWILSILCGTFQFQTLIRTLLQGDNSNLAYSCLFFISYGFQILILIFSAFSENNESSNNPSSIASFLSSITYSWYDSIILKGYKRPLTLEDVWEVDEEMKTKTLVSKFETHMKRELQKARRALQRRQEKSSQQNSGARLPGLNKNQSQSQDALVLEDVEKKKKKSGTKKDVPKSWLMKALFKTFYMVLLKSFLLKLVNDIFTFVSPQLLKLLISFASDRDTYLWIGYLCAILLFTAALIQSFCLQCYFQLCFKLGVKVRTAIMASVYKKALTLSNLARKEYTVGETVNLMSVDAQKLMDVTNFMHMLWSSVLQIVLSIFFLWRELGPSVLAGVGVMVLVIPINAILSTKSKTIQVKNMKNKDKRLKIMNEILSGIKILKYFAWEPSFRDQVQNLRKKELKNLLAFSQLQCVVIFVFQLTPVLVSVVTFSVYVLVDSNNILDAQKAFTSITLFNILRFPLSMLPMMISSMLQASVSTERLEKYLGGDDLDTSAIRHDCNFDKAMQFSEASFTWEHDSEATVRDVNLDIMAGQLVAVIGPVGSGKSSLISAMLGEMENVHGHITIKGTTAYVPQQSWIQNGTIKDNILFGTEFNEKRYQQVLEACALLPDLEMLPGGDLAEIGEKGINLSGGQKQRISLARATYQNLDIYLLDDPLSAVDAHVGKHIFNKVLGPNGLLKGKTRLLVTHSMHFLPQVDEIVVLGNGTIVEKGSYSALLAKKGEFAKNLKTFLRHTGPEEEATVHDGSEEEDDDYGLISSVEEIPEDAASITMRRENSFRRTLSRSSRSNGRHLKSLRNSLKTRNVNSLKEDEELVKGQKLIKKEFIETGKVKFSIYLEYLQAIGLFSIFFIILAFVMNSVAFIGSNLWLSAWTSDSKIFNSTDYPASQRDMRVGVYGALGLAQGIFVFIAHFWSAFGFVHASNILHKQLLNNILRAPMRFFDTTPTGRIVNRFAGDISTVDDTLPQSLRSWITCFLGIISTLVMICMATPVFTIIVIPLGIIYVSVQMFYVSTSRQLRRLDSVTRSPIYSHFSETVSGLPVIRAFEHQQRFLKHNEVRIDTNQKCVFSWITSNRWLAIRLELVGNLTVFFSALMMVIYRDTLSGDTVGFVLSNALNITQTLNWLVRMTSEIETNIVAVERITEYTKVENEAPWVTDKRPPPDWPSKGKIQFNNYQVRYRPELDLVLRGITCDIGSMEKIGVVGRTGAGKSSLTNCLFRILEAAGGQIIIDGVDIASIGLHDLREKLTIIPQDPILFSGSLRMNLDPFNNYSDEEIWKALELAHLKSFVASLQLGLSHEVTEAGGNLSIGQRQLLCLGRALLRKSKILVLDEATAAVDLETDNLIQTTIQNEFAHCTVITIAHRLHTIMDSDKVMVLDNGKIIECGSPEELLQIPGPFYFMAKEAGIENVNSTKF
# [5] = biological target: T3, ATP-binding cassette sub-family C member 2; assay: Drug uptake assessed as human MRP2-mediated drug transport using inside-out membrane vesicles by measuring +ATP/-ATP ratio by LC-MS/MS analysis; format: ADME
# [6] = Drug metabolism in rat intestinal microsomes assessed as formation of scutellarein-6,7-diglucuronide after 7 mins by HPLC/UV analysis; format: ADME, Intestine, Microsome; settings: for Km / Vmax: rat, microsomes, 7 min
# [7] = tested on: Liver microsome; assay: Ratio of Vmax to Km for drug metabolism in rat liver microsomes assessed as formation of scutellarein-6,7-diglucuronide after 7 mins by HPLC/UV analysis; format: ADME
# [8] = biological target: T4, ATP-binding cassette sub-family C member 3 (Homo sapiens, UniProt O15438); assay: Inhibition of human MRP3-mediated estradiol-17beta-D-glucuronide formation using inside-out membrane vesicles by LC-MS/MS analysis
# T4 sequence (O15438 whole entry): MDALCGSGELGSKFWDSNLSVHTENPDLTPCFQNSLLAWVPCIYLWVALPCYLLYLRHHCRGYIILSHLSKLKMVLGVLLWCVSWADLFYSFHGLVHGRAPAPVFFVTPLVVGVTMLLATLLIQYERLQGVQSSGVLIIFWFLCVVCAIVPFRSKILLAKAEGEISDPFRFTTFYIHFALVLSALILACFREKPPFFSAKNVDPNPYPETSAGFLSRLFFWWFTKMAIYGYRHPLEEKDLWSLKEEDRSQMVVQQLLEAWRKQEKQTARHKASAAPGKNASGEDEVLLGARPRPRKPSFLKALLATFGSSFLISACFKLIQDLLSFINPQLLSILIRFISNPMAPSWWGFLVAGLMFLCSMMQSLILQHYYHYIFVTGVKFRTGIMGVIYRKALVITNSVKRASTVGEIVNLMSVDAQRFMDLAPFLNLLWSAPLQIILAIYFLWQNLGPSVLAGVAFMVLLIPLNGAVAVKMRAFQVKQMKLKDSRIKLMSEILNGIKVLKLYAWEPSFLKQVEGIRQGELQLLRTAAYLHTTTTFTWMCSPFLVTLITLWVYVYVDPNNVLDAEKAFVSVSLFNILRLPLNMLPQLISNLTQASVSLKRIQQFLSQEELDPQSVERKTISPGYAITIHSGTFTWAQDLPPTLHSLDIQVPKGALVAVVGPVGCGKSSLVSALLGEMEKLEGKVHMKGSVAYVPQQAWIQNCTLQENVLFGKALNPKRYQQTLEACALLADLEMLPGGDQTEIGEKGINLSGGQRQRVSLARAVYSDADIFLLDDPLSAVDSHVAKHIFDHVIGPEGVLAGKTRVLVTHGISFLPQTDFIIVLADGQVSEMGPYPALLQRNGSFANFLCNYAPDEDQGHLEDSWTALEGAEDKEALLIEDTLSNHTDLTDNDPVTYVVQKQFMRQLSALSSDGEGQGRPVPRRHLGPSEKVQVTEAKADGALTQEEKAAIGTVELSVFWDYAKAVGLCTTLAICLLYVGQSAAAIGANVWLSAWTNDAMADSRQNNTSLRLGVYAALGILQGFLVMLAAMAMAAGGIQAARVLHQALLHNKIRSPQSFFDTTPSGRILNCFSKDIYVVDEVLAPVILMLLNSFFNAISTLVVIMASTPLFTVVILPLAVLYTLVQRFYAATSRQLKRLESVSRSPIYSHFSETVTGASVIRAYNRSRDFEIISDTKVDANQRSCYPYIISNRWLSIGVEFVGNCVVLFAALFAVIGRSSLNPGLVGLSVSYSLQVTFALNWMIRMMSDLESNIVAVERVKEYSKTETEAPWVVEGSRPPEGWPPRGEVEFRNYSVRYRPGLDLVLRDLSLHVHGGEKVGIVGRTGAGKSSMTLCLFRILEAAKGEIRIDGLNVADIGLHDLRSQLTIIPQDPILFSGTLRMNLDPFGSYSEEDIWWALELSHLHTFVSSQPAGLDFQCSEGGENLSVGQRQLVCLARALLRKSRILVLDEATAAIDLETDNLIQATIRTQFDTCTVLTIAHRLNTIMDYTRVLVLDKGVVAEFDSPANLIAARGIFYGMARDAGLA
# [9] = Ratio of Vmax to Km for drug metabolism in human intestinal microsomes assessed as formation of scutellarein-6,7-diglucuronide after 7 mins by HPLC/UV analysis; format: ADME, Intestine, Microsome
# [10] = biological target: T5, UDP-glucuronosyltransferase 1A10 (Homo sapiens, UniProt Q9HAW8); assay: Drug metabolism assessed as human recombinant UGT1A10-mediated formation of scutellarein-6,7-diglucuronide after 25 mins by HPLC/UV analysis; format: ADME
# T5 sequence (Q9HAW8 whole entry): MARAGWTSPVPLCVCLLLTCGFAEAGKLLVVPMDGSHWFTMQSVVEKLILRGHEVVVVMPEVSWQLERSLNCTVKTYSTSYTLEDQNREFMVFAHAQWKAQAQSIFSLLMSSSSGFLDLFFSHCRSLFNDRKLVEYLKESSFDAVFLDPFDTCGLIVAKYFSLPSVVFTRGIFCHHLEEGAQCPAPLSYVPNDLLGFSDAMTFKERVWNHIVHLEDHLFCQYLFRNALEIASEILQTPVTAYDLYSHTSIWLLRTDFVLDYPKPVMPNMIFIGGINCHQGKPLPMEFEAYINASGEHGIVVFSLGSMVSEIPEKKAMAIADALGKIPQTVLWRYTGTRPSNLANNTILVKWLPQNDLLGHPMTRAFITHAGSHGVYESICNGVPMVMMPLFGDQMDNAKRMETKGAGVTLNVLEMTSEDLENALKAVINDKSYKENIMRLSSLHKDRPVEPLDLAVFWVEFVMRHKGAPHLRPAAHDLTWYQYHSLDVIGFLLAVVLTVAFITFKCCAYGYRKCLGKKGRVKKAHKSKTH
# [11] = biological target: Multidrug resistance-associated protein 1 (Homo sapiens, UniProt P33527); assay: Inhibition of human MRP1-mediated estradiol-17beta-D-glucuronide formation using inside-out membrane vesicles by LC-MS/MS analysis
# [12] = biological target: ATP-dependent translocase ABCB1 (Homo sapiens, UniProt P08183); assay: Inhibition of human MDR1-mediated N-methyl quinine formation using inside-out membrane vesicles by LC-MS/MS analysis; format: ADME
# Chain of ATP-dependent translocase ABCB1 (P08183 whole entry): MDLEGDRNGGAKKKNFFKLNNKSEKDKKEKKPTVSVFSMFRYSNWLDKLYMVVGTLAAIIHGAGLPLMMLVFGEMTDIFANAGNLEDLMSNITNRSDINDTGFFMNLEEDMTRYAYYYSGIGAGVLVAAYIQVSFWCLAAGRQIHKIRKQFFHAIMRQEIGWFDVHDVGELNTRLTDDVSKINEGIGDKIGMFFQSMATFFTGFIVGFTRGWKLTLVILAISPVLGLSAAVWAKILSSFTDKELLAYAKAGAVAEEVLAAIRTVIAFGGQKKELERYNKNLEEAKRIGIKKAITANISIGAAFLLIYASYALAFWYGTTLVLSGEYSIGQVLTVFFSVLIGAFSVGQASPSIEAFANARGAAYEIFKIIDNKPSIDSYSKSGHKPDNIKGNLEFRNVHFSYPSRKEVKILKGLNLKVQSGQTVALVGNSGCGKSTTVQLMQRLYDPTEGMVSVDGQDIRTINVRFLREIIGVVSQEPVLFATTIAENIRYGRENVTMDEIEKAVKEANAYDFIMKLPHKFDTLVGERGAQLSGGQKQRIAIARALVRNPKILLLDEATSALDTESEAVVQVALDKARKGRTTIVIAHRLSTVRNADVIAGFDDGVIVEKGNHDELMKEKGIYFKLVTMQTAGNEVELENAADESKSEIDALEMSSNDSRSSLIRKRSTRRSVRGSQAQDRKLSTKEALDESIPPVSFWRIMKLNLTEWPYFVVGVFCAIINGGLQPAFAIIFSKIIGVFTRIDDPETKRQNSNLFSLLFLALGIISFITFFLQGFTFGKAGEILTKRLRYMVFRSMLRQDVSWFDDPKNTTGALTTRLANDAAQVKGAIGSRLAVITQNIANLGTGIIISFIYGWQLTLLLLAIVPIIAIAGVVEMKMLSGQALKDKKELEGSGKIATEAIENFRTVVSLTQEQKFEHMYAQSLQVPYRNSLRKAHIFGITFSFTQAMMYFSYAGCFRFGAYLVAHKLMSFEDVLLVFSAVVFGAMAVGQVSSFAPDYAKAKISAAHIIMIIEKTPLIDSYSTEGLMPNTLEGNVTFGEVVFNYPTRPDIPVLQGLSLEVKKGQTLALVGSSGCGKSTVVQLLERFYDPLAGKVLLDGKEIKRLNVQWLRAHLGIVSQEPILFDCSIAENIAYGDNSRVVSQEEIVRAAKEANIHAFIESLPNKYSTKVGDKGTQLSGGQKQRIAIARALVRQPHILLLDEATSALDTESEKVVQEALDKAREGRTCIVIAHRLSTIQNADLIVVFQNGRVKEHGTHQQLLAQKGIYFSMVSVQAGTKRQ
# [13] = biological target: T4, ATP-binding cassette sub-family C member 3; assay: Drug uptake assessed as human MRP3-mediated drug transport using inside-out membrane vesicles by measuring +ATP/-ATP ratio by LC-MS/MS analysis; format: ADME
# [14] = Drug metabolism in human intestinal microsomes assessed as formation of scutellarein-6,7-diglucuronide after 7 mins by HPLC/UV analysis; format: ADME, Intestine, Microsome; settings: for Km / Vmax: human, microsomes, 7 min
# [15] = tested on: Liver microsome; assay: Ratio of Vmax to Km for drug metabolism in human liver microsomes assessed as formation of scutellarein-6,7-diglucuronide after 7 mins by HPLC/UV analysis; format: ADME
SMILES,Ki [1] [µM],Km [1] [µM],Vmax [1] [nmol/min/mg],IC50 [2] [µM],uptake ratio [3],IC50 [4] [µM],Ratio [5],Ki [6] [µM],Km [6] [µM],Vmax [6] [nmol/min/mg],Vmax/Km [7] [µL/min/mg],inhibition (INH) [8],Vmax/Km [9] [µL/min/mg],Ki [10] [µM],inhibition (INH) [11],inhibition (INH) [12],Ratio [13],Ki [14] [µM],Km [14] [µM],Vmax [14] [nmol/min/mg],other results
O=C(O)[C@H]1O[C@@H](Oc2cc3oc(-c4ccc(O)cc4)cc(=O)c3c(O)c2O)[C@H](O)[C@@H](O)[C@@H]1O [SCUTELLARIN],133,62.4,0.736,10,65,75,3.07,79,349,6.6,204,Not Active,18.5,208,Active,Active,1.61,59.5,643,11.9,Vmax/Km [15]: 11.8 µL/min/mg
O=C(O)[C@H]1O[C@@H](Oc2c(O)cc3oc(-c4ccc(O)cc4)cc(=O)c3c2O)[C@H](O)[C@@H](O)[C@@H]1O,24,123,15.6,20,20.4,50,3.07,79.2,41.1,1.23,91.3,Active,110,242,Active,Active,1.61,11.8,156,17.1,"Vmax ([10]; human, recombinant enzyme, 25 min): 0.221 nmol/min/mg; Vmax/Km [15]: 127 µL/min/mg"
